Measurements taken from patent US8198273B2, “Compounds and methods for kinase modulation, and indications therefor” (Plexxikon Inc., priority 2009, dated 2012).

Legend:
[1] = tested on: IPC298 melanoma cells (Ras mutation); assay: IPC298 cell growth inhibition (ATPlite); format: cell-based; settings: Homo sapiens, IPC-298, 72 h; IPC298, 3 days incubation
Procedure: (§1) Compounds are assessed in a variety of cell based assays. For example human cell lines with B-Raf V600E mutation (A375 melanoma, SKMEL3 melanoma, and COL0205 colon adenocarcinoma), as well as tumorigenic cell lines with wild-type B-RAF (SW620 colon adenocarcinoma) or with Ras mutations (SKMEL2 melanoma and IPC298 melanoma). Similar assays may be used to assess additional tumorigenic cell lines with Ras mutations, including, but not limited to, M202, M207, M243, M244, M296, S117, HCT116, HCT15, DLD1, MiaPaCa, A549, NCI-H23, NCI-H460, HOP62, MDA-MB231, Hs-578T, HL60, MOLT-4, and CCRF-CEM.
(§2) On day 1, cells are counted, then centrifuged in a conical tube for 5 minutes at 1000 rpm. The supernatant is removed and cells are re-suspended as follows: • SW620 (ATCC catalog #CCL-27): resuspend in Leibovitz's L-15 medium, 2 mM L-glutamine, 10% fetal bovine serum to 6×10^4 cells/mL. • A375 (ATCC catalog #CRL-1619): resuspend in Dulbecco's modified Eagle's medium, 4 mM L-glutamine, 4.5 g/L D-glucose, 10% fetal bovine serum to 6×10^4 cells/mL. • COL0205 (ATCC catalog #CCL-222): resuspend in RPMI 1640, 2 mM L-glutamine, 1.5 g/L sodium bicarbonate, 4.5 g/L D-glucose, 10 mM HEPES, 1.0 mM sodium pyruvate, 10% fetal bovine serum to 6×10^4 cells/mL. • SKMEL2 (ATCC catalog #HTB-68): resuspend in Minimum Eagle essential medium, 2 mM L-glutamine, 1.5 g/L sodium bicarbonate, 0.1 mM non-essential amino acids, 1.0 mM sodium pyruvate, 10% fetal bovine serum to 6×10^4 cells/mL. • SKMEL3 (ATCC catalog #HTB-69): resuspend in McCoy's 5A medium, 1.5 mM L-glutamine, 15% fetal bovine serum to 6×10^4 cells/mL. • IPC298 (DSMZ catalog #ACC 251): resuspend in RPMI 1640, 2 mM L-glutamine, 10% fetal bovine serum to 6×10^4 cells/mL.
(§3) The cells are plated, 50 μL in each well of a 96-well dish (Corning 3610) and incubated at 37° C. in 5% CO2 overnight, cells plated to a final concentration of cells as follows:
On day 2, compound at a maximum concentration of 5 mM is serially diluted 1:3 for a total of 8 point titration with DMSO as a control. […]
(§4) On day 5, ATPlite 1 step Luminescence Assay System (Perkin Elmer #6016739) is brought to room temperature along with the cell cultures. ATPlite is added 25 μL to each well, shake for 2 minutes, and the cells are incubated at room temperature for 10 minutes, then luminescence is read on Safire reader. The measured luminescence correlates directly with cell number, such that the reading as a function of compound concentration is used to determine the IC50 value.
It is understood that the results of these assays may vary as assay conditions are varied. Inhibition levels determined under the conditions described herein represent a relative activity for the compounds tested under the specific conditions employed. […]

[2] = tested on: SW620 colon adenocarcinoma cells (wild-type B-RAF); assay: SW620 cell growth inhibition (ATPlite); format: cell-based; settings: Homo sapiens, SW-620, 72 h; SW620, 3 days incubation
Method in brief: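 Cells plated overnight, then exposed 3 days at 37° C to 8-point 1:3 compound dilutions topping at 10 μM final. Viability read as ATPlite luminescence, proportional to cell number; IC50 from luminescence versus concentration.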

[3] = tested on: SKMEL3 melanoma cells (B-Raf V600E); assay: SKMEL3 cell growth inhibition (ATPlite); format: cell-based; settings: Homo sapiens, SK-MEL3, 72 h; SKMEL3, 3 days incubation
Procedure: as §1, §2, §3
SKMEL3: 3,000 cells per well.
On day 2, compound at a maximum concentration of 5 mM is serially diluted 1:3 for a total of 8 point titration with DMSO as a control. A 1 μL aliquot of each dilution point and control is added to 249 μL growth media and 50 μL is added to a well containing cells, providing 10 μM compound at the maximum concentration point. The cells are incubated for 3 days at 37° C. in 5% CO2.
as §4
It is understood that the results of these assays may vary as assay conditions are varied. Inhibition levels determined under the conditions described herein represent a relative activity for the compounds tested under the specific conditions employed. The cell based assays are likely to show variability due to the complexity of the system and the sensitivity thereof to any changes in the assay conditions. […] Results for compounds that are tested and show substantially no inhibition below the highest tested concentration are represented as “-” in the tables below. In some instances, the compounds were not tested in all of the assays, or assay results were not valid, as indicated by NA in the tables below.

Colo205 xenograft = Colo205 xenograft mouse model, tumor growth inhibition; format: in vivo; settings: COLO 205, 336 h, female nu/nu mice, 10 mg/kg daily for fourteen days
Procedure: Tumor growth is monitored to approximately 100 mg size, and mice are distributed to treatment groups such that the mean tumor burden within a group is within 10% of the overall mean tumor burden. […] Mice are observed daily, with tumor burden and body weights measured twice a week. Animals with tumor burden above 1500-2000 mg and any animals in moribund condition are euthanized. The average tumor growth of vehicle control group mice is compared to the average tumor growth of the test compound mice. Percent tumor growth inhibition is calculated as 100×[(tumor growth control-tumor growth test compound)/tumor growth control].

A-Raf = molecular target: T1, A-Raf (Homo sapiens, UniProt P10398); assay: A-Raf biochemical kinase inhibition (AlphaScreen, biotin-MEK1 substrate); settings: 100 μM ATP
T1 sequence (P10398 1-606): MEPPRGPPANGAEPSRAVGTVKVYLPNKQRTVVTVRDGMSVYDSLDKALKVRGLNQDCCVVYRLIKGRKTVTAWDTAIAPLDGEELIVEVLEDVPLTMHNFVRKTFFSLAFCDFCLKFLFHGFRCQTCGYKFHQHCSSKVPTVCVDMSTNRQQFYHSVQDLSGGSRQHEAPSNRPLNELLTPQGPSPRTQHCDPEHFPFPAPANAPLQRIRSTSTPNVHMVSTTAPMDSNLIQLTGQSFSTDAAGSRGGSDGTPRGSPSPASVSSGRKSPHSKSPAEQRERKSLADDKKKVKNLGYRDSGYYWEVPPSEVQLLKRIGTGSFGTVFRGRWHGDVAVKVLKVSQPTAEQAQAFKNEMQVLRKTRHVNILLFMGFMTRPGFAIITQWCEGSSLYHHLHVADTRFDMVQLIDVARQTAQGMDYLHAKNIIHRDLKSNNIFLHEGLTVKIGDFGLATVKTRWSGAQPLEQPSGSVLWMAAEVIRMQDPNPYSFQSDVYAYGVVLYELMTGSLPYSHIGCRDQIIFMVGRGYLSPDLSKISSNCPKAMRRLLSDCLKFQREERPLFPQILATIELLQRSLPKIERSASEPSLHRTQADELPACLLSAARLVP
Method in brief: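 Raf kinases phosphorylating biotin-MEK1, reaction started with ATP at 100 μM final. Compounds tested at 8 points by serial dilution from a 0.1 mM DMSO stock.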

Row | Compound | IC50 [1] | IC50 [2] | IC50 [3] | inhibition in vivo at 10 mg/kg (Colo205 xenograft) | IC50 (A-Raf)
1 | COc1ncc(-c2cnc3[nH]cc(C(=O)c4c(F)ccc(NS(=O)(=O)c5cc(F)ccc5F)c4F)c3c2)cn1 [P-2042, N-{2,4-Difluoro-3-[5-(2-methoxy-pyrimidin-5-yl)-1H-pyrrolo[2,3-b]pyridine-3-carbonyl]-phenyl}-2,5-difluoro-benzenesulfonamide] | < 1 µM | > 10 µM | < 1 µM |  | 
2 | CCCS(=O)(=O)Nc1ccc(F)c(C(=O)c2c[nH]c3ncc(-c4cnc(N(C)C)nc4)cc23)c1F [P-2196, Propane-1-sulfonic acid {3-[5-(2-dimethylamino-pyrimidin-5-yl)-1H-pyrrolo[2,3-b]pyridine-3-carbonyl]-2,4-difluoro-phenyl}-amide] | < 10 µM | > 10 µM | < 1 µM | 71% | < 0.01 µM
